Assay results published in DBAASP.
≈ marks a conversion by molar mass, not a printed value. One block for each molecule: values may come before it.

Experiments:
Assay in all cases: ≥ marks a high value that may be exact or a test limit, other limits are often not marked, values filed in µg/mL are converted to µM
[1] = tested on: Candida albicans NCTC 1467
[2] = tested on: Escherichia coli NCTC 10418
[3] = tested on: Klebsiella pneumoniae ATCC 43816
[4] = tested on: Pseudomonas aeruginosa ATCC 27853
[5] = tested on: Staphylococcus aureus NCTC 10788
[6] = tested on: Staphylococcus aureus NCTC 12493
Bacillus subtilis 168 = tested on: Bacillus subtilis 168
[7] = tested on: Clavibacter michiganensis subsp. michiganensis
Escherichia coli BL21 = tested on: Escherichia coli BL21
[8] = tested on: Pseudomonas syringae pv. tomato DC3000
Ralstonia solanacearum = tested on: Ralstonia solanacearum
[9] = tested on: Xanthomonas campestris pv. holcicola
[10] = tested on: Xanthomonas oryzae pv. oryzae
[11] = tested on: Burkholderia cepacia ATCC 25416
Escherichia coli UB1005 = tested on: Escherichia coli UB1005
[12] = tested on: Pseudomonas aeruginosa H374
[13] = tested on: Pseudomonas aeruginosa H547
[14] = tested on: Pseudomonas aeruginosa H744
[15] = tested on: Pseudomonas aeruginosa K799
[16] = tested on: Pseudomonas aeruginosa Z61
[17] = tested on: Salmonella enterica subsp. enterica serovar Typhimurium ATCC 14028s
[18] = tested on: Aspergillus oryzae NBRC 100959
[19] = tested on: Candida viswanathii NBRC 10321
[20] = tested on: Escherichia coli NBRC 3972
[21] = tested on: Micrococcus luteus NBRC 3333
[22] = tested on: Staphylococcus epidermidis NBRC 12993

MIC [1]: ≥ 64 µM
MIC [2]: ≥ 128 µM
MIC [3]: ≥ 128 µM
MIC [4]: > 128 µM
MIC [5]: 4 µM (≈ 9.54 µg/mL)
MIC [6]: 8 µM (≈ 19.1 µg/mL)
Structure (SMILES): CC[C@H](C)[C@@H]1NC(=O)[C@H](CC(C)C)NC(=O)[C@@H](NC(=O)[C@H](Cc2ccccc2)NC(=O)[C@H](CC(C)C)NC(=O)[C@H](CCCCN)NC(=O)[C@H](Cc2ccc(O)cc2)NC(=O)[C@H](CC(C)C)NC(=O)[C@@H](NC(=O)[C@H](CCCCN)NC(=O)[C@@H](NC(=O)[C@@H](NC(=O)[C@H](C)NC(=O)CNC(=O)[C@H](CC(C)C)NC(=O)[C@H](C)NC(=O)[C@@H](N)Cc2ccccc2)C(C)C)[C@@H](C)O)C(C)C)CSSC[C@@H](C(=O)O)NC(=O)[C@H](CCCCN)NC(=O)[C@H](CCCN=C(N)N)NC(=O)[C@H]([C@@H](C)O)NC1=O [FALGAVTKVLYKLFCLITRKC]

MIC (Bacillus subtilis 168): 16 µM (≈ 42.7 µg/mL)
MIC [7]: 16 µM (≈ 42.7 µg/mL)
MIC (Escherichia coli BL21): 16 µM (≈ 42.7 µg/mL)
MIC [8]: 4 µM (≈ 10.7 µg/mL)
MIC (Ralstonia solanacearum): 8 µM (≈ 21.4 µg/mL)
MIC [9]: 16 µM (≈ 42.7 µg/mL)
MIC [10]: 4 µM (≈ 10.7 µg/mL)
Structure (SMILES): CC[C@H](C)[C@H](NC(=O)CNC(=O)[C@H](C)NC(=O)CN)C(=O)NCC(=O)N1CCC[C@H]1C(=O)NCC(=O)N[C@@H](Cc1cnc[nH]1)C(=O)N[C@@H](CCCN=C(N)N)C(=O)N[C@@H](CCCN=C(N)N)C(=O)N[C@H](C(=O)N[C@@H](Cc1c[nH]c2ccccc12)C(=O)N[C@@H](CCCN=C(N)N)C(=O)N[C@@H](CCCN=C(N)N)C(=O)N[C@@H](Cc1c[nH]c2ccccc12)C(=O)N1CCC[C@H]1C(=O)N[C@@H](CCCN=C(N)N)C(=O)N[C@@H](CCCN=C(N)N)C(=O)N[C@@H](CCCN=C(N)N)C(=O)N[C@@H](Cc1c[nH]c2ccccc12)C(=O)N[C@@H](CCCN=C(N)N)C(=O)O)[C@@H](C)O [GAGIGPGHRRTWRRWPRRRWR]

MIC [11]: 25.2 µM (≈ 64 µg/mL)
MIC (Escherichia coli UB1005): 1.57 µM (≈ 4 µg/mL)
MIC [12]: 3.15 µM (≈ 8 µg/mL)
MIC [13]: 6.3 µM (≈ 16 µg/mL)
MIC [14]: 1.57 µM (≈ 4 µg/mL)
MIC [15]: 25.2 µM (≈ 64 µg/mL)
MIC [16]: 12.6 µM (≈ 32 µg/mL)
MIC [17]: 1.57 µM (≈ 4 µg/mL)
Structure (SMILES): CC[C@H](C)[C@H](NC(=O)CNC(=O)[C@@H](NC(=O)[C@H](CCCCN)NC(=O)[C@H](CCCCN)NC(=O)[C@@H](NC(=O)[C@H](Cc1ccccc1)NC(=O)[C@H](CCCCN)NC(=O)[C@H](CCCCN)NC(=O)[C@H](Cc1c[nH]c2ccccc12)NC(=O)[C@H](CCCCN)NC(=O)[C@@H](N)CCCCN)[C@@H](C)CC)[C@@H](C)CC)C(=O)NCC(=O)N[C@@H](C)C(=O)N[C@H](C(=O)N[C@@H](CC(C)C)C(=O)N[C@H](C(=O)N[C@H](C(=O)N1CCC[C@H]1C(=O)NCC(=O)N[C@@H](C)C(=O)N[C@@H](CCCCN)C(=O)N[C@@H](CCCCN)C(=O)O)[C@@H](C)O)[C@@H](C)O)C(C)C [KKWKKFIKKIGIGAVLTTPGAKK]

MIC [18]: ≥ 126 µM
MIC [19]: ≥ 62.9 µM
MIC [20]: ≥ 503 µM
MIC [21]: ≥ 62.9 µM
MIC [22]: ≥ 126 µM
Structure (SMILES): CC[C@H](C)[C@H](NC(=O)[C@H](CC(C)C)NC(=O)[C@@H](N)CCCN=C(N)N)C(=O)N[C@@H](CCCCN)C(=O)N[C@@H](CCCN=C(N)N)C(=O)N[C@@H](Cc1ccc(O)cc1)C(=O)N[C@@H](CC(C)C)C(=O)N[C@@H](CCCN=C(N)N)C(=O)N[C@@H](CCCN=C(N)N)C(=O)N[C@@H](CCSC)C(=O)N[C@@H](Cc1c[nH]c2ccccc12)C(=O)O [RLIKRYLRRMW]
